Assay results reported in PMC7718273 (Scientific Reports, 2020).
Like-named read-outs stand apart in the source and are kept apart here.

Key:
Plasma stability, mouse = format: in vitro ADME; conditions: pH 7.4, mouse (M), read-out: Plasma stability (% remaining at 60 min)
Experimental: Aliquots were then transferred in duplicate to: (i) a final concentration plate that was immediately quenched with 23.6 ng/mL internal standard (IS, chlorpropamide) in acetonitrile (ACN) or (ii) tubes, which were centrifuged for 5 min at 4℃ (14,000 rpm). The samples were subjected to LC–MS/MS analysis on an AB Sciex 4000 Q Trap hybrid triple quadrupole linear ion-trap MS (AB Sciex, Framingham, MA) coupled to an Agilent 1200 HPLC (Agilent Tech. Santa Clara, CA) with a reverse-phase Kinetex XB-C18 column (2.1 × 100 mm, 2.6 µm; Phenomenex). Mobile phases were comprised of 0.1% formic acid (FA) in water (A) and 0.1 FA in ACN (B). Data analysis was performed using […] (Ver. 1.6.1).

[1] = Plasma protein binding, human; format: in vitro ADME; conditions: human (H), read-out: Plasma protein binding (% bound) (converted)
Experimental: Protein binding was conducted as described. Compound solutions prepared in DMSO were diluted in phosphate buffer (final concentration: 1 µg/mL), and added into human plasma (total volume: 1 mL). Aliquots were then transferred in duplicate to: (i) a final concentration plate that was immediately quenched with 23.6 ng/mL internal standard (IS, chlorpropamide) in ACN, (ii) a degradation control, which was placed in a water bath at 37℃ for 4 h, and (iii) ultracentrifuge tubes, which were centrifuged for 5 min at 4℃ (14,000 rpm). All reactions were stopped by the addition of ACN containing 23.6 ng/mL chlorpropamide. The samples were subjected to LC–MS/MS analysis.

CYP 1A2 = target: T1, CYP 1A2 (Homo sapiens, UniProt P05177); test: CYPs inhibition, human liver microsome, substrate cocktail; format: in vitro ADME; conditions: 1st of 5 values; head prints H; footnote lists CYPs 1A2, 2C9, 2C19, 2D6, 3A4; read-out: CYPs inhibition (IC50, µM) (H/Mk/D/R/M)
T1 construct: from tissue; host or cells: human liver microsomes
T1 sequence (P05177 whole entry): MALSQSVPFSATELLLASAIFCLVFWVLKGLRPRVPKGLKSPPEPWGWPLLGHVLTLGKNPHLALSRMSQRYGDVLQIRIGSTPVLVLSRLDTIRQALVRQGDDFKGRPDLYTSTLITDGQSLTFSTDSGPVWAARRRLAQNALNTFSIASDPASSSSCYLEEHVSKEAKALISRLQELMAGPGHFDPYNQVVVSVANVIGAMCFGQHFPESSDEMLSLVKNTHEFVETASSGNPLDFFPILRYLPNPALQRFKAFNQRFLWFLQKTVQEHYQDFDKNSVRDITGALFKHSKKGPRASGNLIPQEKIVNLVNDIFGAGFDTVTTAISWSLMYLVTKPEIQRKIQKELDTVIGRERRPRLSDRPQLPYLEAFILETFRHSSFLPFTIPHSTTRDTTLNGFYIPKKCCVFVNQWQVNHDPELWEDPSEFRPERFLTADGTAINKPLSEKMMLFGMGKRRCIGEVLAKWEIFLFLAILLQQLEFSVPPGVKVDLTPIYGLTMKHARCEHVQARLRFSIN
Source text: (§1) Metabolites of the substrate probes were simultaneously analyzed by multiple-reaction monitoring using routine LC-MS/MS.

CYP 2C19 = target: T2, CYP 2C19 (Homo sapiens, UniProt P33261); test: as above; format: in vitro ADME; conditions: 3rd of 5 values; head prints D; footnote lists CYPs 1A2, 2C9, 2C19, 2D6, 3A4; read-out: CYPs inhibition (IC50, µM) (H/Mk/D/R/M)
T2 construct: from tissue; host or cells: human liver microsomes
T2 sequence (P33261 whole entry): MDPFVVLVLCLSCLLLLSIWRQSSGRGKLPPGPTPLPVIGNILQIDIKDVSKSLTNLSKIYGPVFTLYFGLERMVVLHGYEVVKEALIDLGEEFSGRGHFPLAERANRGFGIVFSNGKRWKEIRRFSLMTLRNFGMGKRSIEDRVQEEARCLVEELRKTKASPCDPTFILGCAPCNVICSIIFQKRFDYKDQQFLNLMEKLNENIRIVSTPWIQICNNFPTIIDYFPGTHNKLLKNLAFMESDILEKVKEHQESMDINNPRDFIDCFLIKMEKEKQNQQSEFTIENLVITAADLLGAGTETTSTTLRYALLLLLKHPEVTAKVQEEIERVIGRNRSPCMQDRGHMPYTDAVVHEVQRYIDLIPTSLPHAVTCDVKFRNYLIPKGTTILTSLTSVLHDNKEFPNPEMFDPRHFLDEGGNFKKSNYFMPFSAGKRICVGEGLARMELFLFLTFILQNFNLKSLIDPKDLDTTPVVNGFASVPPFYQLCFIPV
Source text: as §1

CYP 2C9 = target: T3, CYP 2C9 (Homo sapiens, UniProt P11712); test: as above; format: in vitro ADME; conditions: 2nd of 5 values; head prints Mk; footnote lists CYPs 1A2, 2C9, 2C19, 2D6, 3A4; read-out: CYPs inhibition (IC50, µM) (H/Mk/D/R/M)
T3 construct: from tissue; host or cells: human liver microsomes
T3 sequence (P11712 whole entry): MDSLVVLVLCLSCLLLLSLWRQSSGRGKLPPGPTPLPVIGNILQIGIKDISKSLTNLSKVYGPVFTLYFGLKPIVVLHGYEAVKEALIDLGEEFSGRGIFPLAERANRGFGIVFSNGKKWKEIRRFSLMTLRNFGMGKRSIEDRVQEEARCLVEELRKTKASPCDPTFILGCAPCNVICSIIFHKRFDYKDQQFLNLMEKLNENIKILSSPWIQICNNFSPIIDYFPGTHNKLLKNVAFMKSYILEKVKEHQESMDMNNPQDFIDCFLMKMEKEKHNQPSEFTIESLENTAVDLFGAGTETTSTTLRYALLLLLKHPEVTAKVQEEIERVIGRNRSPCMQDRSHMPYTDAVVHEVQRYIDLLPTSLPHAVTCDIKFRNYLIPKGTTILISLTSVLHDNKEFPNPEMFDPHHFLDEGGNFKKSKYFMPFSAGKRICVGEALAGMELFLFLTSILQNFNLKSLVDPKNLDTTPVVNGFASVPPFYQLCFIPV
Source text: as §1

CYP 2D6 = target: T4, CYP 2D6 (Homo sapiens, UniProt P10635); test: as above; format: in vitro ADME; conditions: 4th of 5 values; head prints R; footnote lists CYPs 1A2, 2C9, 2C19, 2D6, 3A4; read-out: CYPs inhibition (IC50, µM) (H/Mk/D/R/M)
T4 construct: from tissue; host or cells: human liver microsomes
T4 sequence (P10635 whole entry): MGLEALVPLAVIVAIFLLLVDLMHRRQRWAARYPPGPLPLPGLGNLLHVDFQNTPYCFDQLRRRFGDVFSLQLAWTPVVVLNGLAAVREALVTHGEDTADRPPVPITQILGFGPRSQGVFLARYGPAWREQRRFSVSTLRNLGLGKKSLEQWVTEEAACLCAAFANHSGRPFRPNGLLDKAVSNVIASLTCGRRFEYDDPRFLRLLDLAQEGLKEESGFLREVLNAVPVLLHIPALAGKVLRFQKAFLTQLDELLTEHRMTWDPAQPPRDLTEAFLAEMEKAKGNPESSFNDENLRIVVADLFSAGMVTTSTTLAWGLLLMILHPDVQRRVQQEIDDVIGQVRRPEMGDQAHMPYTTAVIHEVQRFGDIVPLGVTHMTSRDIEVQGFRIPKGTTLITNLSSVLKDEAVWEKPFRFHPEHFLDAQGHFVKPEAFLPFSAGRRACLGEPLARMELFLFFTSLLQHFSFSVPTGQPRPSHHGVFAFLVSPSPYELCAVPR
Source text: as §1

CYP 3A4 = target: T5, CYP 3A4 (Homo sapiens, UniProt P08684); test: as above; format: in vitro ADME; conditions: 5th of 5 values; head prints M; footnote lists CYPs 1A2, 2C9, 2C19, 2D6, 3A4; read-out: CYPs inhibition (IC50, µM) (H/Mk/D/R/M)
T5 construct: from tissue; host or cells: human liver microsomes
T5 sequence (P08684 whole entry): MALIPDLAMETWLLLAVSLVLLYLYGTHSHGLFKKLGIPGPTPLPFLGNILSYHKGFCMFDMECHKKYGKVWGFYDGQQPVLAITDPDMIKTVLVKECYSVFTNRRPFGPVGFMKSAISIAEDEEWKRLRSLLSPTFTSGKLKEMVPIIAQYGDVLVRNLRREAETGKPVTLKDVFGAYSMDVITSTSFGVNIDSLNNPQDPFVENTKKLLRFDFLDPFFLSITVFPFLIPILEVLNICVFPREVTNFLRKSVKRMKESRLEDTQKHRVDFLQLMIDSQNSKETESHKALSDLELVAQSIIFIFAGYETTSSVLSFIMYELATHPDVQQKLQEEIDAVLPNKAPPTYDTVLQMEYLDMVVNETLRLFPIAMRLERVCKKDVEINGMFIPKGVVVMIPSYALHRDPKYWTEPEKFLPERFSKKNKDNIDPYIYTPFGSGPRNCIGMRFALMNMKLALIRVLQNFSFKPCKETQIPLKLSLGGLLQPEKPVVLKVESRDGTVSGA
Source text: as §1

[2] = Pharmacokinetic study in rats; format: in vivo; conditions: male, Sprague-Dawley, plasma, rat, oral 10 mg/kg
Source text: Six male Sprague–Dawley rats (7-week-old, 240–250 g) were obtained from Orient Bio INC. (Seongnam, Gyeonggi-do, Korea) and maintained at 22℃ on a 12-h light/12-h dark cycle with free access to water. All animals were maintained under such conditions for a minimum of 2 weeks prior to initiation of the studies. […] Plasma sample preparations and analysis were the same as described in mice study.

endogenous mouse FAP = test system: T6, endogenous mouse FAP; test: Acute study using ob/ob mice: plasma FAP activity; format: in vivo; conditions: single oral dose 20 or 50 mg/kg, in 1 h, maintained up to 9 h
T6 construct: from tissue; host or cells: mouse serum/plasma (ob/ob and C57BL/6J mice)

serum FAP [3] = target: T7, serum FAP (Mus musculus, UniProt P97321); test: IC50 on serum FAP, mice; format: biochemical
T7 construct: from tissue; host or cells: mouse serum/plasma (ob/ob and C57BL/6J mice)
T7 sequence (P97321 24-761 limits assumed): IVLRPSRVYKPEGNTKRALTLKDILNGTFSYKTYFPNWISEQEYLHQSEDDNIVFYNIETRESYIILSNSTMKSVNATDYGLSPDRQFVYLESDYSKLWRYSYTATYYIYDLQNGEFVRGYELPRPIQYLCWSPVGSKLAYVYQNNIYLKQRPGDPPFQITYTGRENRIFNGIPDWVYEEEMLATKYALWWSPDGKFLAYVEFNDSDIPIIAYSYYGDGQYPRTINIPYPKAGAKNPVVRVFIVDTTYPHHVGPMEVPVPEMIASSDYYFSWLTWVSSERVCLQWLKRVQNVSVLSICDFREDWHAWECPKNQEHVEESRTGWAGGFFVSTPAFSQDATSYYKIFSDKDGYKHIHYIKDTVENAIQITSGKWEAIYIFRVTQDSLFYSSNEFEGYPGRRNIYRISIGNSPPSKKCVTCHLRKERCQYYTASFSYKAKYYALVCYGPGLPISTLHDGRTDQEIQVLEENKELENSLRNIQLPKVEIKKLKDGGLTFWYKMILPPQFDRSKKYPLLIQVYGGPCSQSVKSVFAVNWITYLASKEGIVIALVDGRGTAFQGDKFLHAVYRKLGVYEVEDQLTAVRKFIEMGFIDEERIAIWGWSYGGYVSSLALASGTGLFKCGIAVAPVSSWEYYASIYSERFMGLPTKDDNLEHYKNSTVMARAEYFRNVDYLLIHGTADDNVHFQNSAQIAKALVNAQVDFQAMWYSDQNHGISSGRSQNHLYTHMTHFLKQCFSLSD

serum FAP [4] = target: T8, serum FAP (Homo sapiens, UniProt Q12884); test: IC50 on serum FAP, humans; format: biochemical
T8 construct: also found in human serum as a soluble form lacking the transmembrane domain; from tissue; host or cells: human serum
T8 sequence (Q12884 24-760 limits assumed): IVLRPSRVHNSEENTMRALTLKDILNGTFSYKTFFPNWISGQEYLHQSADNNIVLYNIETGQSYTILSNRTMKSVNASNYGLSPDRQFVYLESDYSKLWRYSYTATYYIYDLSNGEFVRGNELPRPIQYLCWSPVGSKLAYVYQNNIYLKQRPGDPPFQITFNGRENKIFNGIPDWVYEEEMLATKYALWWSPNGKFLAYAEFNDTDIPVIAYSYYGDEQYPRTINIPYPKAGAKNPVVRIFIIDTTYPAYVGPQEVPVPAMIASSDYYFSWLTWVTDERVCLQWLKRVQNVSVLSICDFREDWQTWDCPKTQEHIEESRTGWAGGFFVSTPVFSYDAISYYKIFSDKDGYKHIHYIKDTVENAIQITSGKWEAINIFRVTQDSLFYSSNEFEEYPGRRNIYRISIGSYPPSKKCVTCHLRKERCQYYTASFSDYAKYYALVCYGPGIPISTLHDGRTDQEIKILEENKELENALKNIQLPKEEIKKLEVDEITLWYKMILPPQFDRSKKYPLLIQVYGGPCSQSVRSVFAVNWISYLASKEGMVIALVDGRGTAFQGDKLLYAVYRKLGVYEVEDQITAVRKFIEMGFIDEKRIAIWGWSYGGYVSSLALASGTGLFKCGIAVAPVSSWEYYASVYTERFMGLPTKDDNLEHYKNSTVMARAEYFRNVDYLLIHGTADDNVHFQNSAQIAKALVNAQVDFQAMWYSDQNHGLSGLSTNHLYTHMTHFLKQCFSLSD

CDAHFD NASH mouse model = test: In vivo study using CDAHFD mice (NASH model); set-up: species or system C57BL/6J mice
Experimental: C57BL/6J mice were fed normal chow diet (n = 5) or choline-deficient, L-amino acid-defined, high-fat diet (CDAHFD) for 4 weeks to induce NASH (n = 8–10/group). […] (a) Relative FAP activity was assessed by FRET-quench and serum FGF21 level at week 14. […] (c) Steatosis scores ranged from 0 to 3 (normal = 0, minimal = 1, moderate = 2, marked = 3) were determined. Hepatic steatosis and fibrosis (Picrosirius red stain) were analyzed in a blinded manner or by digital image analyzer. (d–e) Histological evaluations of liver tissue were performed in each group. Paraffin-embedded liver sections were stained with H&E (d) and Sirius red (e). Representative photographs of each group were presented. Images were obtained at 100x (Scale bar = 50 µm).
Male C57BL/6J mice (5 weeks of age) were fed with a CDAHFD consisting of 60% kcal fat and 0.1% methionine. […] For the CDAHFD model, compound treatments were started at the beginning of week 4 on the diet and continued until week 14. […] Liver tissue was then collected. All other measurements were done similarly as described above. Staining was performed using H&E and Picrosirius red as described previously. Areas of positive Sirius red were quantified by computer-based morphometric analysis.

[5] = 10 and 30 mg/kg, week 14, vs vehicle

## N#Cc1ccc(Cc2nc(C(=O)NCC(=O)N3CC(F)(F)C[C@H]3C#N)cs2)cc1 [BR103354, (S)-N-(2-(2-cyano-4,4-difluoropyrrolidin-1-yl)-2-oxoethyl)-2-(4-cyanobenzyl)thiazole-4-carboxamide]
Plasma stability, mouse
  remaining at 1 h, 1 µM: 94%
[1]
  fraction unbound at 1 µg/mL: 0.33
CYP 1A2
  IC50: > 50 µM
CYP 2C19
  IC50: > 50 µM
CYP 2C9
  IC50: > 50 µM
CYP 2D6
  IC50: > 50 µM
CYP 3A4
  IC50: > 50 µM
[2]
  Cmax: 4400 ng/mL
  Tmax: 1.1 h
  half-life: 3.5 h
[2]; read-out: AUC(0–6 h)
  AUC(0-t): 19700 ng·h/mL
Endogenous mouse FAP
  inhibition of plasma FAP activity: more than 70%
Serum FAP [3]; mice, monkeys and humans together, read-out: serum FAP IC50 values, all three species
  IC50: 27 to 31 nM
Serum FAP [3]; read-out: Serum FAP IC50 (nM): Mouse
  IC50: 31 nM
Serum FAP [4]
  IC50: 29 nM
CDAHFD NASH mouse model; 10 and 30 mg/kg
  liver fibrosis (Picrosirius red staining): significant reduction
CDAHFD NASH mouse model; 10 and 30 mg/kg p.o. for 10 weeks
  increase of serum FGF21 levels: 1.5–1.9 folds
CDAHFD NASH mouse model; 10 and 30 mg/kg, score 0 to 3
  Steatosis scores: significant reduction
CDAHFD NASH mouse model; [5]
  TG: reduced
  blood ALT levels: reduced
  blood AST levels: reduced
  glucose levels: reduced
  total cholesterol: reduced
